Assay results reported in US11001587B2, “Substituted indazoles as phosphatidylinositol kinase inhibitors” (CUROVIR AB, priority 2017, dated 2021).

How the values were obtained:
PI3Kα = PI3Kα (Homo sapiens, UniProt P42336); assay: PI3 kinase inhibition HTRF assay; assay type: biochemical; settings: * no inhibition at the highest tested concentration 1 μM
Procedure: (§1) Phosphatidyl inositol kinase inhibition assay Inhibition of PI4 kinases was studied using the ADP-Glo™ Kinase Assay which is a luminescent kinase assay that measures ADP formed from a kinase reaction, wherein ADP is converted into ATP, which is converted into light by Ultra-Glo™ Luciferase. The assay is performed in two steps; first, after the kinase reaction, an equal volume of ADP-Glo™ Reagent is added to terminate the kinase reaction and deplete the remaining ATP. In the second step, the Kinase Detection Reagent is added, which simultaneously converts ADP to ATP and allows the newly synthesized ATP to be measured using a coupled luciferase/luciferin reaction. The luminescent signal produced is proportional to the activity of the kinase. Inhibition of PI3 kinases was studied using the HTRF (homogeneous time-resolved fluorescence) assay, which is a universal method for identifying and characterizing the phosphotransferase activity induced by any ATP/ADP dependent target. The formation of ADP was detected by a specific monoclonal antibody labeled with Eu^3+ cryptate, and directly correlated with the amount of phosphorylated substrate.

PI3Kβ = PI3Kβ (Homo sapiens, UniProt P42338); assay: PI3 kinase inhibition HTRF assay; assay type: biochemical; settings: * no inhibition at the highest tested concentration 1 μM
Procedure: as §1

coxsackie B1 virus = assay: In vitro CPE assay in mammalian cell culture, B1; assay type: cell-based; settings: viral cytopathic effect in mammalian cell culture, read-out: B1 inhibition capacity (IC50)
coxsackie B5 virus = assay: In vitro CPE assay in mammalian cell culture, B5; assay type: cell-based; settings: viral cytopathic effect in mammalian cell culture, read-out: B5 inhibition capacity (IC50)
Enterovirus 68 = assay: In vitro CPE assay in mammalian cell culture, EV68; assay type: cell-based; settings: Enterovirus D, viral cytopathic effect in mammalian cell culture, read-out: EV68 inhibition capacity (IC50)
[1] = Metabolic stability in rat liver microsomes; assay type: in vitro ADME; settings: 5 μM test item, 0.125 mg/mL microsomal protein
Procedure: (§2) Metabolic stability in human and rat liver microsomesMetabolic stability was studied using human (HLM) or rat (RLM) liver microsomes. The final composition of the assay included 5 μM of test item and reference item (Diclofenac or Imipramine) prepared from DMSO stock, so that the final concentration of DMSO was 0.1%, 0.125 mg/mL microsomal protein and cofactors (5.0 mM G-6-P, 0.06 U/mL G-6-PDH, 2.0 mM MgCl2, 1.0 mM NADP^+). Test and reference items were incubated with human or rat liver microsomes with or without cofactors. The reaction mixture (100 μL) was removed at specified time periods and the reaction was stopped by addition of stop solution. The samples were extracted in presence of internal standard and were analyzed using LC-MS/MS. The percent of the test/reference item remaining after a specified incubation period was calculated with respect to the peak area ratio at time 0 min.

coxsackie B2 virus = assay: In vitro CPE assay in mammalian cell culture, B2; assay type: cell-based; settings: viral cytopathic effect in mammalian cell culture, read-out: B2 inhibition capacity (IC50)
in vitro = in vitro ADME; settings: plasma, pH 7.4
Procedure: Plasma protein binding study was performed by using a Rapid Equilibrium Dialysis (RED) device containing dialysis membrane with a molecular weight cut-off of 8,000 Daltons. Each dialysis insert contains two chambers. The red chamber was for the plasma while the white chamber was for the buffer. The human and rat plasma (pH adjusted to 7.40) samples of test items and reference items (Warfarin and Propranolol) were prepared at a required test concentration of 5 μM using 5 mM DMSO stocks (final DMSO concentration was 0.1%). 300 μL of plasma sample was added into the sample chamber. 500 μL of buffer was added into the buffer chamber. After sealing the RED device with an adhesive film, incubation was done at 37° C. with shaking at 300 rpm for 4 h. Following incubation, an aliquot of 50 μL was removed from each well (plasma and buffer side) and diluted with equal volume of opposite matrix to nullify the matrix effect. The specimens were subjected to sample extraction in presence of internal standard by liquid-liquid extraction/protein precipitation method. After extraction, the samples were transferred into labeled auto sampler vials and submitted to LC-MS/MS analysis.

PI4KIIIβ = PI4KIIIβ (Homo sapiens, UniProt Q9UBF8); assay: Phosphatidyl inositol kinase inhibition assay (ADP-Glo Kinase Assay); assay type: biochemical
Procedure: as §1

PI4KIIIα = PI4KIIIα (Homo sapiens, UniProt P42356); assay: as above; assay type: biochemical; settings: * no inhibition at the highest tested concentration 1 μM
Procedure: as §1

Enterovirus 71 = assay: In vitro CPE assay in mammalian cell culture, EV71; assay type: cell-based; settings: Enterovirus A, viral cytopathic effect in mammalian cell culture, read-out: EV71 inhibition capacity (IC50)
Enterovirus 30 = assay: In vitro CPE assay in mammalian cell culture, EV30; assay type: cell-based; settings: viral cytopathic effect in mammalian cell culture, read-out: EV30 inhibition capacity (IC50)
Enterovirus 6 = assay: In vitro CPE assay in mammalian cell culture, EV6; assay type: cell-based; settings: viral cytopathic effect in mammalian cell culture, read-out: EV6 inhibition capacity (IC50)
in vivo [2] = assay: in vivo; parameters: species or system Sprague Dawley rats; settings: Sprague Dawley, rat, po
Procedure: Based on previous toxicity tests with analogs and pharmacokinetic data, repeated dose toxicity and toxicokinetic studies were conducted to generate information on the toxic characteristics of some representative compounds of the invention, viz. Example 8 and Example 12, respectively, when administered orally by gavage to Sprague Dawley rats for a period of 7 consecutive days. The study plan for the studies was by current ICH guidelines for 7 days toxicity studies and the No Observed Adverse Effect Level (NOAEL) of Example 8 and Example 12 was determined as 60 mg/kg body weight/day and 50 mg/kg bodyweight/day respectively when administered once daily orally to Sprague Dawley rats for 7 consecutive days under the tested dose levels and experimental conditions employed.

coxsackie B3 virus = assay: In vitro CPE assay in mammalian cell culture, B3; assay type: cell-based; settings: Enterovirus B, viral cytopathic effect in mammalian cell culture, read-out: B3 inhibition capacity (IC50)
[3] = Metabolic stability in human liver microsomes; assay type: in vitro ADME
Procedure: as §2

polio virus Sabin 1 = assay: organism not typed; assay type: cell-based; settings: read-out: Polio 1 inhibition capacity (IC50)
in vivo [4] = assay: in vivo; parameters: species or system Sprague Dawley rats; settings: male, Sprague Dawley, rat, po, 50 mg/kg
Procedure: Overnight fasted animals were administered with the test compounds in recommended vehicle 0.4% (v/v) Tween 80+2% (v/v) Glycerol and 15% w/v HPBCD by oral route with a dose of 50 mg/kg body weight at dose volume of 10 mL/kg bw. Under mild isoflurane anesthesia, blood samples were collected into pre-labeled tubes containing anticoagulant (K2EDTA—2 mg/mL blood) during the next 24 hours post dose. Collected blood samples were centrifuged at 4000 rpm, 4° C. for 10 minutes and plasma was separated and stored at −80° C. until analysis.

coxsackie B4 virus = assay: In vitro CPE assay in mammalian cell culture, B4; assay type: cell-based; settings: Enterovirus B, viral cytopathic effect in mammalian cell culture, read-out: B4 inhibition capacity (IC50)

Sequence of PI3Kα (P42336 whole entry, species assumed): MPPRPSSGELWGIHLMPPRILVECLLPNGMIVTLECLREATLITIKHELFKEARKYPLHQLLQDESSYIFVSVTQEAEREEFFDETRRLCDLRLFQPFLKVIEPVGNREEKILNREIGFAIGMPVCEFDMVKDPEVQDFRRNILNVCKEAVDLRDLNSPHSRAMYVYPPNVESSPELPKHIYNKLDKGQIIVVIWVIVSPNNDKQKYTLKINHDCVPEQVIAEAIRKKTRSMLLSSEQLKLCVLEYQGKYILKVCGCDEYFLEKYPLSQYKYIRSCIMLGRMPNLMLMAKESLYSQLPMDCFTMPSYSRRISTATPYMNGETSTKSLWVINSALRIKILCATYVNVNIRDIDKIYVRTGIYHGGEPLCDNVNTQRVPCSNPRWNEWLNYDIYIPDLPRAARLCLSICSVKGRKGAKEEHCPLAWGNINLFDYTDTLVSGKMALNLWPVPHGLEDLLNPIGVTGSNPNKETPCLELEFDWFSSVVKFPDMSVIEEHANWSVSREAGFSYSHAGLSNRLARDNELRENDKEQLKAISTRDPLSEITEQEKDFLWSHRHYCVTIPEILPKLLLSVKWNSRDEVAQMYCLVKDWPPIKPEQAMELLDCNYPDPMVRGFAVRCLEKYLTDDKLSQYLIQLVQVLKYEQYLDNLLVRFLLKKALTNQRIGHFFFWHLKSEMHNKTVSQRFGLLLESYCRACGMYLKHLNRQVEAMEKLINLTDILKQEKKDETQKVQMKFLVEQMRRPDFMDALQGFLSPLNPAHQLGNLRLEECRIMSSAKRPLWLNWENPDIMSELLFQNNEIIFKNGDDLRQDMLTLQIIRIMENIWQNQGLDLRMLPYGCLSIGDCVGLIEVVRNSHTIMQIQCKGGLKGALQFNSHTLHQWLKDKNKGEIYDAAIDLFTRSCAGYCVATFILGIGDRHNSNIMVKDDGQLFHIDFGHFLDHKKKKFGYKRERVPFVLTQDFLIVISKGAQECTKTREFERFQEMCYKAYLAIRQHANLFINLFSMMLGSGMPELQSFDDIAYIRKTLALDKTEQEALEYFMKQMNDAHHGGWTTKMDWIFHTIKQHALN
Sequence of PI3Kα (P27986 whole entry partner, species assumed): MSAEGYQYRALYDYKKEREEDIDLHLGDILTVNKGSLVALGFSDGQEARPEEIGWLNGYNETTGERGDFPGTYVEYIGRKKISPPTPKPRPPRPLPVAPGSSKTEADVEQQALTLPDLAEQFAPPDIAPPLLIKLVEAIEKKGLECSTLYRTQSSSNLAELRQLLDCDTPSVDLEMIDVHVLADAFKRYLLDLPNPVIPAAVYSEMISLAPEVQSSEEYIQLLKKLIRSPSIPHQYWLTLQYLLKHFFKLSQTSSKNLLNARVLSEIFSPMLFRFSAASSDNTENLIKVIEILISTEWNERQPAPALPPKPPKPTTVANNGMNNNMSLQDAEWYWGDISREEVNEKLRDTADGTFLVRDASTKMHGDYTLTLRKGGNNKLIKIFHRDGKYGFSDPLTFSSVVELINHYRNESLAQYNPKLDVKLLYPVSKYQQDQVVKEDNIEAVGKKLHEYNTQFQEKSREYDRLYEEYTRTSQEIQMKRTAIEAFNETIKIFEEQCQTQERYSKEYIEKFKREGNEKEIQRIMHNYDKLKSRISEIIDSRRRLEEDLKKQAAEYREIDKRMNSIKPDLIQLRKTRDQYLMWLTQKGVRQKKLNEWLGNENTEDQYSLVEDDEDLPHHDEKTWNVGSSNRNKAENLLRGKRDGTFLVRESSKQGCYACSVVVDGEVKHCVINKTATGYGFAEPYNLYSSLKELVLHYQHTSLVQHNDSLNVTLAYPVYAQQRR
Sequence of PI3Kβ (P42338 whole entry, species assumed): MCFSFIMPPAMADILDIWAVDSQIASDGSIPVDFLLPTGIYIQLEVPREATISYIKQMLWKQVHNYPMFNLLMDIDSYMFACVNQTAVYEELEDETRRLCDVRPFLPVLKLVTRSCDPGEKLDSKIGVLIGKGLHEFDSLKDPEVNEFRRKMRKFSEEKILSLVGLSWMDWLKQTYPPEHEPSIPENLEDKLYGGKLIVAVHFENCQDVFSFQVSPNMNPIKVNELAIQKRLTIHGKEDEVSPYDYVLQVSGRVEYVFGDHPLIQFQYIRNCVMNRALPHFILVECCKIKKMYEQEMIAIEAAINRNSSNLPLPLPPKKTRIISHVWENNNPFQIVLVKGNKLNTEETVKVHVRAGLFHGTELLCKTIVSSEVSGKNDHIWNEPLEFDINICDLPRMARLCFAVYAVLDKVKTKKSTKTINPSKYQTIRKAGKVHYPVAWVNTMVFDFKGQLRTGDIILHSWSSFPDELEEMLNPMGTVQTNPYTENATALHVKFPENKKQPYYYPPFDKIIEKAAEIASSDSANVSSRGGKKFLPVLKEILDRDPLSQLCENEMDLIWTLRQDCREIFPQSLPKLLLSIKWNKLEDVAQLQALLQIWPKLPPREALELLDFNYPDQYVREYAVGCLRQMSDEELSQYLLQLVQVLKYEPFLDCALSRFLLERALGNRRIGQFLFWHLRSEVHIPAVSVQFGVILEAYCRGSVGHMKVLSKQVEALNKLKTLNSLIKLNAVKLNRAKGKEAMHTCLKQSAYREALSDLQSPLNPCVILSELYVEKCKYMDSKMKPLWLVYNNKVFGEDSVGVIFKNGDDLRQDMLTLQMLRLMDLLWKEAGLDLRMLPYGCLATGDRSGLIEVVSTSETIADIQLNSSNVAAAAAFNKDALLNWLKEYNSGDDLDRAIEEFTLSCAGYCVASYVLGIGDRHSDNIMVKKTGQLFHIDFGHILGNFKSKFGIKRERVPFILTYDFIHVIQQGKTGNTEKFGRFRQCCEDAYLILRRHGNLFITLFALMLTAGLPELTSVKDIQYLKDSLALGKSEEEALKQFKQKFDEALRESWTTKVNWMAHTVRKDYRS
Sequence of PI3Kβ (P27986 whole entry partner, species assumed): as the sequence (P27986 whole entry partner, species assumed) above
Sequence of PI4KIIIβ (Q9UBF8 whole entry): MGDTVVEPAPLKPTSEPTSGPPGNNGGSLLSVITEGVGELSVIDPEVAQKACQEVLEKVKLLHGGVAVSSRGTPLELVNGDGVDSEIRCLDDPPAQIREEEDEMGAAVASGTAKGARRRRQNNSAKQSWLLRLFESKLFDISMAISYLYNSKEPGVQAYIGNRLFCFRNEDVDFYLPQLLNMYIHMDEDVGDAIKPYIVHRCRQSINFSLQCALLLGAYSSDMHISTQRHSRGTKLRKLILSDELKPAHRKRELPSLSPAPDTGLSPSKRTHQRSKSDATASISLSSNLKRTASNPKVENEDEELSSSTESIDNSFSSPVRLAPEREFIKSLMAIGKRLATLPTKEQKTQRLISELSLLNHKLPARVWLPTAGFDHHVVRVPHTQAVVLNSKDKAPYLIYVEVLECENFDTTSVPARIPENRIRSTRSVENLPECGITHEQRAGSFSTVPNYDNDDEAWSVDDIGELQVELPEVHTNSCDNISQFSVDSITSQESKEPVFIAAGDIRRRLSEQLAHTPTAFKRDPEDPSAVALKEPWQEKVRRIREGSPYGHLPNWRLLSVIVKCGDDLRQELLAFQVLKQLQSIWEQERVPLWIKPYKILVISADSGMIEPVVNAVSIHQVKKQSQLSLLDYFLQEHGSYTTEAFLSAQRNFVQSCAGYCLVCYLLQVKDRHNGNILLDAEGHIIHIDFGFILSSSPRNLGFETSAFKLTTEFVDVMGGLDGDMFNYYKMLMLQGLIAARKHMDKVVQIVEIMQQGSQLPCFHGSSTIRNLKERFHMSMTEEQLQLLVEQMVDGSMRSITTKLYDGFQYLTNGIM

Cc1cc(NCc2ccc(S(C)(=O)=O)cc2)n2nc(C)c(-c3ccc4c(c3)c(C)nn4C)c2n1 [Example 12, 3-(1,3-dimethyl-1H-indazol-5-yl)-2,5-dimethyl-N-(4-(methyl-sulfonyl)benzyl)pyrazolo[1,5-a]pyrimidin-7-amine]
IC50 (PI3Kα): > 1000 nM
IC50 (PI3Kβ): > 1000 nM
IC50 (coxsackie B1 virus): < 10 nM
IC50 (coxsackie B5 virus): < 1 nM
IC50 (Enterovirus 68): < 100 nM
Remaining after 1 h, RLM [1]: 71%
IC50 (coxsackie B2 virus): < 10 nM
fraction unbound at 4 h, 5 μM (in vitro; human): 0.01
fraction unbound at 4 h, 5 μM (in vitro; rat): 0.015
IC50 (PI4KIIIβ): 0.8 nM
IC50 (PI4KIIIα): 800 nM
IC50 (Enterovirus 71): < 10 nM
IC50 (Enterovirus 30): < 1 nM
IC50 (Enterovirus 6): < 10 nM
NOAEL at 7 days (in vivo [2]): 50 mg/kg/day
IC50 (coxsackie B3 virus): < 1 nM
Remaining after 1 h, HLM ([3]; human liver microsomes, 5 μM test item, 0.125 mg/mL microsomal protein): 84%
half-life at 5 μM ([3]; human, microsomes): > 2 h
IC50 (polio virus Sabin 1): < 10 nM
AUC(0-inf) (in vivo [4]): 73300 ± 46900 ng·h/mL
AUC(0-t) (in vivo [4]): 30000 ± 8200 ng·h/mL
AUCextrap (in vivo [4]): 49.4 ± 24.5%
Cmax (in vivo [4]): 1900 ± 100 ng/mL
MRT last (in vivo [4]): 10.3 ± 1.2 h
Tmax (in vivo [4]): 5.3 ± 2.3 h
half-life (in vivo [4]): 27.6 ± 16.8 h
IC50 (coxsackie B4 virus): < 1 nM
